Experimental data from patent US6737383B1, “Herbicidal oxadiazolidines” (priority 1999, dated 2004).

Legend:
bedstraw = assay: Test B pre/postemergence bedstraw; assay type: in vivo, Galium aparine
Outline: (§1)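 Test chemicals in a non-phytotoxic solvent mixture with surfactant were sprayed preemergence onto planted seeds and postemergence onto plants 2 to 18 cm tall (1- to 4-leaf stage). After twelve to sixteen days in a greenhouse, injury was visually rated against untreated controls from 0 (no effect) to 10 (complete control).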

blackgrass = assay: Test B pre/postemergence blackgrass; assay type: in vivo, Alopecurus myosuroides
Outline: as §1

surinam grass = assay: Test B pre/postemergence surinam grass; assay type: in vivo, Brachiaria decumbens
Outline: as §1

corn = assay: Test B pre/postemergence corn; assay type: in vivo, Zea mays
Outline: as §1

crabgrass = assay: Test B pre/postemergence crabgrass; assay type: in vivo, Digitaria sanguinalis
Outline: as §1

giant foxtail = assay: Test B pre/postemergence giant foxtail; assay type: in vivo, Setaria faberii
Outline: as §1

morningglory = assay: Test B pre/postemergence morningglory; assay type: in vivo, Ipomoea hederacea
Outline: as §1

rape = assay: Test B pre/postemergence rape; assay type: in vivo, Brassica napus
Outline: as §1

soybean = assay: Test B pre/postemergence soybean; assay type: in vivo, Glycine max
Outline: as §1

velvetleaf = assay: Test B pre/postemergence velvetleaf; assay type: in vivo, Abutilon theophrasti
Outline: as §1

wheat = assay: Test B pre/postemergence wheat; assay type: in vivo, Triticum aestivum
Outline: as §1

wild oat = assay: Test B pre/postemergence wild oat; assay type: in vivo, Avena fatua
Outline: as §1

purple nutsedge = assay: Test B pre/postemergence purple nutsedge; assay type: in vivo, Cyperus rotundus
Outline: as §1

rice = assay: Test B flood test rice; assay type: in vivo, Oryza sativa
Outline: (§2)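 Flood test on plants grown to the 2-leaf stage; treated plants kept in greenhouse twelve to sixteen days, then visually rated against controls on a 0 (no effect) to 10 (complete control) scale.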

smallflower flatsedge = assay: Test B flood test smallflower flatsedge; assay type: in vivo, Cyperus difformis
Outline: as §2

duck salad = assay: Test B flood test duck salad; assay type: in vivo, Heteranthera limosa
Outline: as §2

[1] = Postemergence, Rate 62 g/ha, scale 0 to 10, 0 is no effect, 10 is complete control
[2] = Postemergence, Rate 250 g/ha, scale 0 to 10, 0 no effect, 10 complete control
[3] = Preemergence, Rate 62 g/ha, scale 0 to 10 (0 no effect, 10 complete control)
[4] = Preemergence, Rate 125 g/ha, scale 0 to 10 (0 no effect, 10 complete control)
[5] = Preemergence, Rate 250 g/ha, scale of 0 to 10 where 0 is no effect and 10 is complete control
[6] = Preemergence, Rate 500 g/ha, scale 0 (no effect) to 10 (complete control)
[7] = Rate 125 g/ha, Postemergence, scale 0 to 10, 0 no effect, 10 complete control
[8] = Rate 500 g/ha, Postemergence, scale 0 to 10, 0 no effect, 10 complete control
[9] = Rate 125 g/ha, Postemergence section (flood test species), scale 0 to 10, 0 no effect, 10 complete control
[10] = Rate 500 g/ha, listed under Postemergence (flood test species), scale 0 to 10, 0 no effect, 10 complete control
[11] = flood test, listed under Postemergence, Rate 250 g/ha, scale 0 to 10, 0 no effect, 10 complete control

## Cc1nn(C)c(C)c1-n1c(=O)on(C(=O)N(c2ccc(F)cc2F)C(C)C)c1=O [Compound 76]
bedstraw; [1]
  Bedstraw plant response rating: 0
bedstraw; [2]
  Bedstraw plant response rating: 2
bedstraw; [3]
  Bedstraw plant response rating: 0
bedstraw; [4]
  Plant response rating, Bedstraw: 0
bedstraw; [5]
  Plant response rating, Bedstraw: 0
bedstraw; [6]
  Bedstraw plant response rating: 0
bedstraw; [7]
  Bedstraw plant response rating: 0
bedstraw; [8]
  Bedstraw plant response rating: 4
blackgrass; [1]
  Blackgrass plant response rating: 0
blackgrass; [2]
  Blackgrass plant response rating: 6
blackgrass; [3]
  Blackgrass plant response rating: 0
blackgrass; [4]
  Plant response rating, Blackgrass: 2
blackgrass; [5]
  Plant response rating, Blackgrass: 4
blackgrass; [6]
  Blackgrass plant response rating: 8
blackgrass; [7]
  Blackgrass plant response rating: 2
blackgrass; [8]
  Blackgrass plant response rating: 8
Surinam grass; [1]
  B. signalgrass plant response rating: 0
Surinam grass; [2]
  B. signalgrass plant response rating: 5
Surinam grass; [3]
  B. signalgrass plant response rating: 0
Surinam grass; [4]
  Plant response rating, B. signalgrass: 0
Surinam grass; [5]
  Plant response rating, B. signalgrass: 2
Surinam grass; [6]
  B. signalgrass plant response rating: 8
Surinam grass; [7]
  B. signalgrass plant response rating: 0
Surinam grass; Rate 500 g/ha, Postemergence, scale of 0 to 10 where 0 is no effect and 10 is complete control
  B. signalgrass plant response rating: 9
corn; [1]
  Corn plant response rating: 0
corn; [2]
  Corn plant response rating: 0
corn; [3]
  Corn plant response rating: 0
corn; [4]
  Plant response rating, Corn: 0
corn; [5]
  Plant response rating, Corn: 2
corn; [6]
  Corn plant response rating: 4
corn; [7]
  Corn plant response rating: 0
corn; [8]
  Corn plant response rating: 0
crabgrass; [1]
  Crabgrass plant response rating: 2
crabgrass; [2]
  Crabgrass plant response rating: 8
crabgrass; [3]
  Crabgrass plant response rating: 3
crabgrass; [4]
  Plant response rating, Crabgrass: 4
crabgrass; [5]
  Plant response rating, Crabgrass: 8
crabgrass; [6]
  Crabgrass plant response rating: 8
crabgrass; [7]
  Crabgrass plant response rating: 4
crabgrass; [8]
  Crabgrass plant response rating: 9
Giant foxtail; [1]
  Giant foxtail plant response rating: 3
Giant foxtail; [2]
  Giant foxtail plant response rating: 7
Giant foxtail; [3]
  Giant foxtail plant response rating: 4
Giant foxtail; [4]
  Plant response rating, Giant foxtail: 9
Giant foxtail; [5]
  Plant response rating, Giant foxtail: 9
Giant foxtail; [6]
  Giant foxtail plant response rating: 9
Giant foxtail; [7]
  Giant foxtail plant response rating: 4
Giant foxtail; [8]
  Giant foxtail plant response rating: 9
morningglory; [1]
  Morningglory plant response rating: 0
morningglory; [2]
  Morningglory plant response rating: 4
morningglory; [3]
  Morningglory plant response rating: 0
morningglory; [4]
  Plant response rating, Morningglory: 0
morningglory; [5]
  Plant response rating, Morningglory: 0
morningglory; [6]
  Morningglory plant response rating: 0
morningglory; [7]
  Morningglory plant response rating: 2
morningglory; [8]
  Morningglory plant response rating: 7
rape; [1]
  Rape plant response rating: 0
rape; [2]
  Rape plant response rating: 0
rape; [3]
  Rape plant response rating: 0
rape; [4]
  Plant response rating, Rape: 0
rape; [5]
  Plant response rating, Rape: 0
rape; [6]
  Rape plant response rating: 0
rape; [7]
  Rape plant response rating: 0
rape; [8]
  Rape plant response rating: 2
soybean; [1]
  Soybean plant response rating: 0
soybean; [2]
  Soybean plant response rating: 2
soybean; [3]
  Soybean plant response rating: 0
soybean; [4]
  Plant response rating, Soybean: 0
soybean; [5]
  Plant response rating, Soybean: 0
soybean; [6]
  Soybean plant response rating: 0
soybean; [7]
  Soybean plant response rating: 1
soybean; [8]
  Soybean plant response rating: 2
velvetleaf; [1]
  Velvetleaf plant response rating: 0
velvetleaf; [2]
  Velvetleaf plant response rating: 3
velvetleaf; [3]
  Velvetleaf plant response rating: 0
velvetleaf; [4]
  Plant response rating, Velvetleaf: 0
velvetleaf; [5]
  Plant response rating, Velvetleaf: 0
velvetleaf; [6]
  Velvetleaf plant response rating: 0
velvetleaf; [7]
  Velvetleaf plant response rating: 0
velvetleaf; [8]
  Velvetleaf plant response rating: 4
wheat; [1]
  Wheat plant response rating: 0
wheat; [2]
  Wheat plant response rating: 0
wheat; [3]
  Wheat plant response rating: 0
wheat; [4]
  Plant response rating, Wheat: 0
wheat; [5]
  Plant response rating, Wheat: 0
wheat; [6]
  Wheat plant response rating: 2
wheat; [7]
  Wheat plant response rating: 0
wheat; [8]
  Wheat plant response rating: 3
Wild oat; [1]
  Wild oats plant response rating: 0
Wild oat; [2]
  Wild oats plant response rating: 2
Wild oat; [3]
  Wild oats plant response rating: 0
Wild oat; [4]
  Plant response rating, Wild oats: 0
Wild oat; [5]
  Plant response rating, Wild oats: 4
Wild oat; [6]
  Wild oats plant response rating: 4
Wild oat; [7]
  Wild oats plant response rating: 0
Wild oat; [8]
  Wild oats plant response rating: 5
Purple nutsedge; [1]
  Nutsedge plant response rating: 0
Purple nutsedge; [2]
  Nutsedge plant response rating: 0
Purple nutsedge; [3]
  Nutsedge plant response rating: 0
Purple nutsedge; [4]
  Plant response rating, Nutsedge: 0
Purple nutsedge; [5]
  Plant response rating, Nutsedge: 0
Purple nutsedge; [6]
  Nutsedge plant response rating: 0
Purple nutsedge; [7]
  Nutsedge plant response rating: 0
Purple nutsedge; [8]
  Nutsedge plant response rating: 0
rice; [1]
  Rice plant response rating: 0
rice; [9]
  Rice plant response rating: 0
rice; [10]
  Rice plant response rating: 3
rice; [11]
  Rice plant response rating: 3
Smallflower flatsedge; [1]
  S. Flatsedge plant response rating: 0
Smallflower flatsedge; [9]
  S. Flatsedge plant response rating: 0
Smallflower flatsedge; [10]
  S. Flatsedge plant response rating: 0
Smallflower flatsedge; [11]
  S. Flatsedge plant response rating: 0
Duck salad; [1]
  Ducksalad plant response rating: 0
Duck salad; [9]
  Ducksalad plant response rating: 0
Duck salad; [10]
  Ducksalad plant response rating: 0
Duck salad; [11]
  Ducksalad plant response rating: 0
